According to ChEMBL document CHEMBL4831544, “Discovery of IHMT-EZH2-115 as a Potent and Selective Enhancer of Zeste Homolog 2 (EZH2) Inhibitor for the Treatment of B-Cell Lymphomas” (J Med Chem, 2021):
One block for each compound: values may come before it.

Columns and labels:
[1] = Antiproliferative activity against human WSUDLCL2 cells assessed as inhibition of cell growth measured after 6 days by CellTiter-Glo luminescent assay; format: functional; conditions: WSUDLCL2, 144 h, time 6 day
[2] = Half life in rat at 10 mg/kg, po; format: ADME, organism-based; conditions: in vivo
[3] = Cmax in rat at 10 mg/kg, po; format: ADME, organism-based; set-up: route oral, dose 10 mg/kg; conditions: in vivo
[4] = AUC (0 to infinity) in rat at 10 mg/kg, po; format: ADME, organism-based; set-up: time infinity, route oral, dose 10 mg/kg; conditions: in vivo
[5] = Apparent volume of distribution in rat at 10 mg/kg, po; format: ADME, organism-based; conditions: in vivo
[6] = Clearance in rat at 10 mg/kg, po; format: ADME, organism-based; conditions: in vivo; for CL: 10 mg/kg
[7] = Oral bioavailability in rat at 10 mg/kg; format: ADME, organism-based; conditions: in vivo
[8] = Half life in rat at 1 mg/kg, iv; format: ADME, organism-based; conditions: in vivo
[9] = Cmax in rat at 1 mg/kg, iv; format: ADME, organism-based; set-up: route intravenous, dose 1 mg/kg; conditions: in vivo
[10] = AUC (0 to infinity) in rat at 1 mg/kg, iv; format: ADME, organism-based; set-up: route intravenous, time infinity, dose 1 mg/kg; conditions: in vivo
[11] = Apparent volume of distribution in rat at 1 mg/kg, iv; format: ADME, organism-based; conditions: in vivo; for Vd: read-out: Vz
[12] = Clearance in rat at 1 mg/kg, iv; format: ADME, organism-based; conditions: in vivo
[13] = system: Pfeiffer; experiment: Antiproliferative activity against human Pfeiffer cells harboring EZH2 A677G mutant assessed as inhibition of cell growth measured after 6 days by CellTiter-Glo luminescent assay; format: functional; conditions: 144 h, time 6 day
[14] = Antiproliferative activity against human WSUDLCL2 cells harboring EZH2 Y641F mutant assessed as inhibition of cell growth measured after 6 days by CellTiter-Glo luminescent assay; format: functional; conditions: WSUDLCL2, 144 h, time 6 day
[15] = system: KARPAS-422; experiment: Antiproliferative activity against human KARPAS-422 cells harboring EZH2 Y641N mutant assessed as inhibition of cell growth measured after 6 days by CellTiter-Glo luminescent assay; format: functional; conditions: KARPAS-422, 144 h, time 6 day
[16] = system: SU-DHL-6; experiment: Antiproliferative activity against human SU-DHL-6 cells harboring EZH2 Y641N mutant assessed as inhibition of cell growth measured after 6 days by CellTiter-Glo luminescent assay; format: functional; conditions: SU-DHL-6, 144 h, time 6 day
[17] = system: SUD4; experiment: Antiproliferative activity against human SU-DHL-4 cells harboring EZH2 Y641S mutant assessed as inhibition of cell growth measured after 6 days by CellTiter-Glo luminescent assay; format: functional; conditions: SU-DHL-4, 144 h, time 6 day
[18] = system: U2932; experiment: Antiproliferative activity against human U2932 cells expressing wild type EZH2 assessed as inhibition of cell growth measured after 6 days by CellTiter-Glo luminescent assay; format: functional; conditions: U2932, 144 h, time 6 day
[19] = system: Pfeiffer; experiment: Antitumor activity against human Pfeiffer cells harboring EZH2 A677G mutant xenografted in NCG mouse assessed as tumor growth inhibition at 200 mg/kg, po BID via gavage measured after 28 days relative to control; format: functional; conditions: 672 h, time 28 day, read-out: TGI
[20] = system: KARPAS-422; experiment: Antitumor activity against human KARPAS-422 cells harboring EZH2 Y641N mutant xenografted in NCG mouse assessed as tumor growth inhibition at 200 mg/kg, po BID via gavage measured after 28 days relative to control; format: functional; conditions: KARPAS-422, po, 672 h, time 28 day, read-out: TGI
[21] = Toxicity in NCG mouse xenografted with human Pfeiffer cells harboring EZH2 A677G mutant assessed as effect on body weight at 200 mg/kg, po BID via gavage measured after 28 days; format: organism-based; conditions: in vivo, 672 h, time 28 day
[22] = Toxicity in NCG mouse xenografted with human KARPAS-422 cells harboring EZH2 Y641N mutant assessed as effect on body weight at 200 mg/kg, po BID via gavage measured after 28 days; format: organism-based; conditions: in vivo, 672 h, time 28 day
[23] = system: KARPAS-422; experiment: Antitumor activity against human KARPAS-422 cells harboring EZH2 Y641N mutant xenografted in NCG mouse assessed as change in tumor weight at 200 mg/kg, po BID via gavage measured after 28 days (reference value: 2.14 g); format: functional; conditions: time 28 day

- half-life [2]: 1.88 h
- Cmax [3]: 106 ng/mL
- AUC(0-inf) [4]: 244 ng·h/mL
- Vz [5]: 208.585 L/kg
- CL/F [6]: 1170 mL/min/kg
- bioavailability [7]: 10.1%
- half-life [8]: 0.8 h
- Cmax [9]: 686 ng/mL
- AUC(0-inf) [10]: 242 ng·h/mL
- Vd [11]: 4.8 L/kg
- clearance [12]: 69.1 mL/min/kg
SMILES: CCN(C(=O)C1CC1)c1cc(-c2ccc(CN3CCOCC3)cc2)cc(C(=O)NCc2c(C)cc(C)[nH]c2=O)c1C
- GI50 [1]: 200 nM

SMILES: Cc1cc(C)c(CNC(=O)c2cc(-c3ccc(CN4CCOCC4)cc3)cc3c2CCN3C(=O)c2ccco2)c(=O)[nH]1
- GI50 [1]: 51600 nM

- t1/2 ([2]; 10 mg/kg): 1.82 h
- Cmax [3]: 42 ng/mL
- AUC [4]: 132 ng·h/mL
- Vz [5]: 205.232 L/kg
- CL [6]: 155.8 mL/min/kg
- bioavailability [7]: 4.8%
- t1/2 ([8]; 1 mg/kg): 1.79 h
- Cmax [9]: 609 ng/mL
- AUC(0-inf) [10]: 277 ng·h/mL
- Vz ([11]; 1 mg/kg): 79.554 L/kg
- CL ([12]; 1 mg/kg): 60.87 mL/min/kg
SMILES: CCN(C(=O)C1CC1)c1cc(-c2cnc(N3CCN(CC4CC4)CC3)c(C)c2)cc(C(=O)NCc2c(C)cc(C)[nH]c2=O)c1C
- GI50 [1]: 300 nM

SMILES: CCN(C(=O)C1CC1)c1cc(-c2ccc(N)cc2)cc(C(=O)NCc2c(C)cc(C)[nH]c2=O)c1C
- GI50 [1]: 800 nM

SMILES: CCN(C(=O)C1CC1)c1cc(-c2ccc(NC(=O)c3cccs3)cc2)cc(C(=O)NCc2c(C)cc(C)[nH]c2=O)c1C
- GI50 [1]: 900 nM

SMILES: CCN(C(=O)C1CC1)c1cc(-c2ccc(N3CCNCC3)cc2)cc(C(=O)NCc2c(C)cc(C)[nH]c2=O)c1C
- GI50 [1]: 200 nM

- GI50 [15]: 90 nM
- GI50 [16]: 1050 nM
SMILES: CCN(c1cc(-c2ccc(CN3CCOCC3)cc2)cc(C(=O)NCc2c(C)cc(C)[nH]c2=O)c1C)C1CCOCC1 [TAZEMETOSTAT]
- GI50 [1]: 300 nM
- GI50 [13]: 2 nM
- GI50 [14]: 80 nM
- GI50 [17]: 3390 nM
- GI50 [18]: > 10000 nM
- inhibition in vivo at 200 mg/kg [19]: 100%
- inhibition in vivo at 200 mg/kg [20]: 89.3%
- Activity [21]: Non-Toxic
- Activity [22]: Non-Toxic
- Activity [23]: 0.23 g

- half-life [2]: 2.08 h
- Cmax [3]: 115 ng/mL
- AUC [4]: 242 ng·h/mL
- Vz [5]: 470.567 L/kg
- CL [6]: 1805.68 mL/min/kg
- bioavailability [7]: 13%
- half-life [8]: 1.55 h
- Cmax [9]: 444 ng/mL
- AUC(0-inf) [10]: 241 ng·h/mL
- Vd [11]: 9.32 L/kg
- clearance [12]: 69.9 mL/min/kg
SMILES: CCN1CCN(c2ccc(-c3cc(C(=O)NCc4c(C)cc(C)[nH]c4=O)c(C)c(N(CC)C(=O)C4CC4)c3)cc2)CC1
- GI50 [1]: 200 nM

SMILES: Cc1cc(C)c(CNC(=O)c2cc(-c3ccc(CN4CCOCC4)cc3)cc3c2CCN3C(=O)C2CC2)c(=O)[nH]1
- GI50 [1]: 50500 nM

SMILES: CCN(C(=O)C1CC1)c1cc(-c2ccc(N3CCN(CC4CC4)CC3)cc2)cc(C(=O)NCc2c(C)cc(C)[nH]c2=O)c1C
- GI50 [1]: 100 nM

SMILES: CCN(C(=O)C1CC1)c1cc(-c2cnc(N3CCN(CC4CC4)CC3)cc2C)cc(C(=O)NCc2c(C)cc(C)[nH]c2=O)c1C
- GI50 [1]: 200 nM

SMILES: Cc1cc(C)c(CNC(=O)c2cc(-c3ccc(CN4CCOCC4)cc3)cc3c2CCN3C(=O)C2CCOCC2)c(=O)[nH]1
- GI50 [1]: 94500 nM

SMILES: Cc1cc(C)c(CNC(=O)c2cc(-c3ccc(CN4CCOCC4)cc3)cc3c2CCN3C(=O)C2CCCC2)c(=O)[nH]1
- GI50 [1]: 44000 nM

SMILES: CCN(C(=O)C1CCCCC1)c1cc(-c2ccc(CN3CCOCC3)cc2)cc(C(=O)NCc2c(C)cc(C)[nH]c2=O)c1C
- GI50 [1]: 32400 nM

- half-life [2]: 1.03 h
- Cmax [3]: 473 ng/mL
- AUC(0-inf) [4]: 406 ng·h/mL
- Vz [5]: 53.401 L/kg
- CL/F [6]: 542 mL/min/kg
- bioavailability [7]: 15.1%
- half-life [8]: 0.38 h
- Cmax [9]: 824 ng/mL
- AUC(0-inf) [10]: 269 ng·h/mL
- Vd [11]: 2.03 L/kg
- clearance [12]: 62.7 mL/min/kg
SMILES: CCN(C(=O)C1CCCC1)c1cc(-c2ccc(CN3CCOCC3)cc2)cc(C(=O)NCc2c(C)cc(C)[nH]c2=O)c1C
- GI50 [1]: 300 nM

SMILES: CC[C@H](C)n1cc(C)c2c(C(=O)NCc3c(C)cc(C)[nH]c3=O)cc(-c3ccc(N4CCNCC4)nc3)cc21 [GSK2816126]
- GI50 [1]: 5000 nM

SMILES: CCN(C(=O)c1ccccc1)c1cc(-c2ccc(CN3CCOCC3)cc2)cc(C(=O)NCc2c(C)cc(C)[nH]c2=O)c1C
- GI50 [1]: 34700 nM

SMILES: CCN(C(=O)C1CCOCC1)c1cc(-c2ccc(CN3CCOCC3)cc2)cc(C(=O)NCc2c(C)cc(C)[nH]c2=O)c1C
- GI50 [1]: 16200 nM

SMILES: CCN(C(C)=O)c1cc(-c2ccc(CN3CCOCC3)cc2)cc(C(=O)NCc2c(C)cc(C)[nH]c2=O)c1C
- GI50 [1]: 13000 nM

SMILES: CCN(C(=O)C(C)C)c1cc(-c2ccc(CN3CCOCC3)cc2)cc(C(=O)NCc2c(C)cc(C)[nH]c2=O)c1C
- GI50 [1]: 500 nM

SMILES: CCN(C(=O)C1CCC1)c1cc(-c2ccc(CN3CCOCC3)cc2)cc(C(=O)NCc2c(C)cc(C)[nH]c2=O)c1C
- GI50 [1]: 900 nM

SMILES: CCN(C(=O)C1CC1)c1cc(-c2ccc(NC(=O)c3cccnc3)cc2)cc(C(=O)NCc2c(C)cc(C)[nH]c2=O)c1C
- GI50 [1]: 800 nM

- half-life [2]: 1.46 h
- Cmax [3]: 67 ng/mL
- AUC(0-inf) [4]: 260 ng·h/mL
- Vz [5]: 84.455 L/kg
- CL/F [6]: 675 mL/min/kg
- bioavailability [7]: 9.4%
- half-life [8]: 1.25 h
- Cmax [9]: 673 ng/mL
- AUC(0-inf) [10]: 277 ng·h/mL
- Vd [11]: 6.5 L/kg
- clearance [12]: 60.3 mL/min/kg
SMILES: CCN(C(=O)C1CC1)c1cc(-c2ccc(N3CCN(CC4CC4)CC3)nc2)cc(C(=O)NCc2c(C)cc(C)[nH]c2=O)c1C
- GI50 [1]: 200 nM

SMILES: CCN(C(=O)C1CC1)c1cc(-c2ccc(N3CCOCC3)cc2)cc(C(=O)NCc2c(C)cc(C)[nH]c2=O)c1C
- GI50 [1]: 200 nM

SMILES: CCN(C(=O)C1CC1)c1cc(-c2ccc(NC(=O)CCN(C)C)cc2)cc(C(=O)NCc2c(C)cc(C)[nH]c2=O)c1C
- GI50 [1]: 1800 nM

SMILES: CCN(C(=O)C1CC1)c1cc(-c2ccc(NC(=O)C3CCOCC3)cc2)cc(C(=O)NCc2c(C)cc(C)[nH]c2=O)c1C
- GI50 [1]: 700 nM

SMILES: CCC(=O)N(CC)c1cc(-c2ccc(CN3CCOCC3)cc2)cc(C(=O)NCc2c(C)cc(C)[nH]c2=O)c1C
- GI50 [1]: 900 nM
